In the NIST ThermoML archive (doi:10.1021/je800783a):

Assay: xn = mol fraction of the nth substance listed
Settings: 101 kPa, Liquid, Vibrating tube method

CCCn1cc[n+](C)c1.N[C@@H](CCC(=O)O)C(=O)[O-] + O
Settings	mass density [kg/m3]
283.15 K, x1 = 0.039	1090.4
283.15 K, x1 = 0.0455	1100.76
283.15 K, x1 = 0.0497	1106.9
283.15 K, x1 = 0.0683	1129.12
283.15 K, x1 = 0.0783	1139.04
283.15 K, x1 = 0.0894	1147.7
283.15 K, x1 = 0.0975	1153.37
283.15 K, x1 = 0.1235	1169.78
283.15 K, x1 = 0.1451	1178.22
283.15 K, x1 = 0.1925	1191.85
283.15 K, x1 = 0.239	1201.76
283.15 K, x1 = 0.2888	1208.1
283.15 K, x1 = 0.3294	1211.85
283.15 K, x1 = 0.3767	1215
283.15 K, x1 = 0.4265	1218.6
283.15 K, x1 = 0.4713	1220.69
283.15 K, x1 = 0.5112	1221.72
283.15 K, x1 = 0.5427	1223.07
288.15 K, x1 = 0.039	1088.42
288.15 K, x1 = 0.0455	1098.39
288.15 K, x1 = 0.0497	1104.45
288.15 K, x1 = 0.0683	1126.36
288.15 K, x1 = 0.0783	1136.21
288.15 K, x1 = 0.0894	1144.79
288.15 K, x1 = 0.0975	1150.37
288.15 K, x1 = 0.1235	1166.6
288.15 K, x1 = 0.1451	1175.07
288.15 K, x1 = 0.1925	1188.67
288.15 K, x1 = 0.239	1198.15
288.15 K, x1 = 0.2888	1204.86
288.15 K, x1 = 0.3294	1208.49
288.15 K, x1 = 0.3767	1211.68
288.15 K, x1 = 0.4265	1214.72
288.15 K, x1 = 0.4713	1217.33
288.15 K, x1 = 0.5112	1218.47
288.15 K, x1 = 0.5427	1220.26
293.15 K, x1 = 0.039	1086.11
293.15 K, x1 = 0.0455	1095.92
293.15 K, x1 = 0.0497	1101.92
293.15 K, x1 = 0.0683	1123.56
293.15 K, x1 = 0.0783	1133.31
293.15 K, x1 = 0.0894	1141.8
293.15 K, x1 = 0.0975	1147.34
293.15 K, x1 = 0.1235	1163.35
293.15 K, x1 = 0.1451	1172.01
293.15 K, x1 = 0.1925	1185.47
293.15 K, x1 = 0.239	1194.83
293.15 K, x1 = 0.2888	1201.46
293.15 K, x1 = 0.3294	1205.08
293.15 K, x1 = 0.3767	1208.49
293.15 K, x1 = 0.4265	1211.93
293.15 K, x1 = 0.4713	1213.9
293.15 K, x1 = 0.5112	1215.18
293.15 K, x1 = 0.5427	1216.93
298.15 K, x1 = 0.039	1083.72
298.15 K, x1 = 0.0455	1093.38
298.15 K, x1 = 0.0497	1099.3
298.15 K, x1 = 0.0683	1120.71
298.15 K, x1 = 0.0783	1130.35
298.15 K, x1 = 0.0894	1138.78
298.15 K, x1 = 0.0975	1144.3
298.15 K, x1 = 0.1235	1160.15
298.15 K, x1 = 0.1451	1168.85
298.15 K, x1 = 0.1925	1182.21
298.15 K, x1 = 0.239	1191.61
298.15 K, x1 = 0.2888	1197.83
298.15 K, x1 = 0.3294	1201.85
298.15 K, x1 = 0.3767	1205.25
298.15 K, x1 = 0.4265	1209.67
298.15 K, x1 = 0.4713	1210.64
298.15 K, x1 = 0.5112	1211.78
298.15 K, x1 = 0.5427	1213.92
303.15 K, x1 = 0.039	1081.22
303.15 K, x1 = 0.0455	1090.77
303.15 K, x1 = 0.0497	1096.64
303.15 K, x1 = 0.0683	1117.81
303.15 K, x1 = 0.0783	1127.36
303.15 K, x1 = 0.0894	1135.72
303.15 K, x1 = 0.0975	1141.18
303.15 K, x1 = 0.1235	1156.96
303.15 K, x1 = 0.1451	1165.64
303.15 K, x1 = 0.1925	1178.9
303.15 K, x1 = 0.239	1188.36
303.15 K, x1 = 0.2888	1194.59
303.15 K, x1 = 0.3294	1198.55
303.15 K, x1 = 0.3767	1201.91
303.15 K, x1 = 0.4265	1206.45
303.15 K, x1 = 0.4713	1207.32
303.15 K, x1 = 0.5112	1208.42
303.15 K, x1 = 0.5427	1210.64
308.15 K, x1 = 0.039	1078.64
308.15 K, x1 = 0.0455	1088.06
308.15 K, x1 = 0.0497	1093.89
308.15 K, x1 = 0.0683	1114.86
308.15 K, x1 = 0.0783	1124.33
308.15 K, x1 = 0.0894	1132.63
308.15 K, x1 = 0.0975	1138.07
308.15 K, x1 = 0.1235	1153.81
308.15 K, x1 = 0.1451	1162.49
308.15 K, x1 = 0.1925	1175.73
308.15 K, x1 = 0.239	1185.05
308.15 K, x1 = 0.2888	1191.36
308.15 K, x1 = 0.3294	1195.3
308.15 K, x1 = 0.3767	1198.71
308.15 K, x1 = 0.4265	1203.15
308.15 K, x1 = 0.4713	1203.95
308.15 K, x1 = 0.5112	1205.15
308.15 K, x1 = 0.5427	1207.34
313.15 K, x1 = 0.039	1075.97
313.15 K, x1 = 0.0455	1085.27
313.15 K, x1 = 0.0497	1091.07
313.15 K, x1 = 0.0683	1111.85
313.15 K, x1 = 0.0783	1121.25
313.15 K, x1 = 0.0894	1129.5
313.15 K, x1 = 0.0975	1134.91
313.15 K, x1 = 0.1235	1150.57
313.15 K, x1 = 0.1451	1159.24
313.15 K, x1 = 0.1925	1172.52
313.15 K, x1 = 0.239	1181.78
313.15 K, x1 = 0.2888	1188.1
313.15 K, x1 = 0.3294	1192.09
313.15 K, x1 = 0.3767	1195.42
313.15 K, x1 = 0.4265	1199.74
313.15 K, x1 = 0.4713	1200.57
313.15 K, x1 = 0.5112	1201.78
313.15 K, x1 = 0.5427	1203.93
318.15 K, x1 = 0.039	1073.22
318.15 K, x1 = 0.0455	1082.41
318.15 K, x1 = 0.0497	1088.19
318.15 K, x1 = 0.0683	1108.8
318.15 K, x1 = 0.0783	1118.14
318.15 K, x1 = 0.0894	1126.34
318.15 K, x1 = 0.0975	1131.71
318.15 K, x1 = 0.1235	1147.32
318.15 K, x1 = 0.1451	1155.99
318.15 K, x1 = 0.1925	1169.27
318.15 K, x1 = 0.239	1178.48
318.15 K, x1 = 0.2888	1184.82
318.15 K, x1 = 0.3294	1188.84
318.15 K, x1 = 0.3767	1192.17
318.15 K, x1 = 0.4265	1196.17
318.15 K, x1 = 0.4713	1197.03
318.15 K, x1 = 0.5112	1198.21
318.15 K, x1 = 0.5427	1200.61
323.15 K, x1 = 0.039	1070.37
323.15 K, x1 = 0.0455	1079.46
323.15 K, x1 = 0.0497	1085.24
323.15 K, x1 = 0.0683	1105.7
323.15 K, x1 = 0.0783	1114.98
323.15 K, x1 = 0.0894	1123.14
323.15 K, x1 = 0.0975	1128.49
323.15 K, x1 = 0.1235	1144.03
323.15 K, x1 = 0.1451	1152.7
323.15 K, x1 = 0.1925	1166
323.15 K, x1 = 0.239	1175.27
323.15 K, x1 = 0.2888	1181.51
323.15 K, x1 = 0.3294	1185.58
323.15 K, x1 = 0.3767	1188.94
323.15 K, x1 = 0.4265	1192.88
323.15 K, x1 = 0.4713	1193.63
323.15 K, x1 = 0.5112	1194.79
323.15 K, x1 = 0.5427	1197.22
328.15 K, x1 = 0.039	1067.43
328.15 K, x1 = 0.0455	1076.44
328.15 K, x1 = 0.0497	1082.22
328.15 K, x1 = 0.0683	1102.55
328.15 K, x1 = 0.0783	1111.78
328.15 K, x1 = 0.0894	1119.9
328.15 K, x1 = 0.0975	1125.24
328.15 K, x1 = 0.1235	1140.73
328.15 K, x1 = 0.1451	1149.4
328.15 K, x1 = 0.1925	1162.68
328.15 K, x1 = 0.239	1172
328.15 K, x1 = 0.2888	1178.21
328.15 K, x1 = 0.3294	1182.29
328.15 K, x1 = 0.3767	1185.67
328.15 K, x1 = 0.4265	1189.64
328.15 K, x1 = 0.4713	1190.41
328.15 K, x1 = 0.5112	1191.55
328.15 K, x1 = 0.5427	1193.66
333.15 K, x1 = 0.039	1064.43
333.15 K, x1 = 0.0455	1073.32
333.15 K, x1 = 0.0497	1079.13
333.15 K, x1 = 0.0683	1099.36
333.15 K, x1 = 0.0783	1108.54
333.15 K, x1 = 0.0894	1116.63
333.15 K, x1 = 0.0975	1121.94
333.15 K, x1 = 0.1235	1137.4
333.15 K, x1 = 0.1451	1146.06
333.15 K, x1 = 0.1925	1159.35
333.15 K, x1 = 0.239	1168.59
333.15 K, x1 = 0.2888	1174.99
333.15 K, x1 = 0.3294	1178.98
333.15 K, x1 = 0.3767	1182.34
333.15 K, x1 = 0.4265	1186.35
333.15 K, x1 = 0.4713	1187.18
333.15 K, x1 = 0.5112	1188.22
333.15 K, x1 = 0.5427	1190.35
338.15 K, x1 = 0.039	1061.36
338.15 K, x1 = 0.0455	1070.11
338.15 K, x1 = 0.0497	1075.98
338.15 K, x1 = 0.0683	1096.1
338.15 K, x1 = 0.0783	1105.26
338.15 K, x1 = 0.0894	1113.31
338.15 K, x1 = 0.0975	1118.6
338.15 K, x1 = 0.1235	1134.05
338.15 K, x1 = 0.1451	1142.71
338.15 K, x1 = 0.1925	1155.98
338.15 K, x1 = 0.239	1165.3
338.15 K, x1 = 0.2888	1171.72
338.15 K, x1 = 0.3294	1175.77
338.15 K, x1 = 0.3767	1179.04
338.15 K, x1 = 0.4265	1183.09
338.15 K, x1 = 0.4713	1183.94
338.15 K, x1 = 0.5112	1184.93
338.15 K, x1 = 0.5427	1187.07
